Test results as given in patent publication US4888414A, “Insulin-binding peptides and uses thereof” (Board of Regents, University of Texas System, priority 1987, dated 1989).
Where no end group is shown, it is not given here.

Columns and labels:
insulin [1] = target: T1, insulin (Homo sapiens, UniProt P01308); assay: Binding of 125I-insulin to various immobilized peptides; conditions: peptide immobilized from 5 ug/ml; 2 nM 125I-insulin
Description: The binding specificity of iodinated insulin for immobilized peptides was determined. Peptides of various sequences and sizes were immobilized in microtitre wells, as described in Example 1. The peptides utilized were IBP (CVEEAS) and a series of control peptide having the following designations and amino acid sequences: S28, TTHYQKG; S79, AQGHRPQDEG; S81, YGSLPQKAQGHRPQDEG; S82, THYGSLPQKAQGHRPQDEG; and EAE, FSWGAEGQR.
Peptides were dissolved in buffer at a concentration of 5 ug/ml, and immobilized in the wells of the microtitre plate. The immobilized peptides were then incubated with 2 nM ^125 I-insulin in the absence or presence of 3 uM unlabeled insulin, as described above. The specific binding of insulin to immobilized peptide is indicated, alone with the binding as a percentage of the binding of insulin to immobilized IBP. The peptides utilized are indicated on the abcissa. The respective relative binding of insulin (shown in FIG. 5) was IBP-100%, S28-0.3%, S79-1.5%, S81-0.6%, S82-0.2% and EAE-0.3%.

insulin [2] = target: T1, insulin; assay: Binding of 125I-insulin to immobilized IBP in microtitre wells
Description: Insulin Binding Peptide, synthesized by OCS Laboratories, Inc., Denton, Tex., was immobilized in the wells of flexible, U-bottom 96-well polyvinyl chloride microtitre plates (Falcon, Becton Dickinson Labware). To each well was added 100 ul of the peptide (5 ug/ml in 0.1 M sodium carbonate, pH 9.6). The peptide was allowed to adsorb to the well overnight at 4° C. Unreacted sites in the wells were blocked with 150 ul of 1% ovalbumin (Sigma Chemical Co.) in 0.1M sodium carbonate, pH 9.6, for 1 h at room temperature. The wells were washed two times with phosphate-buffered saline (PBS) containing 0.1% BSA (Fraction V, Sigma Chemical Co.), and then incubated with ^125 I-insulin in PBS, 0.1% BSA, for 3 h at room temperature. The wells were then washed 3 times with PBS-0.1% BSA, and were then excised from the plate and counted in a gamma counter. Total binding of insulin to the IBP was determined with iodinated insulin alone. Nonspecific binding was determined in the presence of radiolabeled insulin plus 3 uM unlabeled insulin. Specific binding was calculated as the difference between total and nonspecific binding. All values are reported as specific binding, unless otherwise indicated. All determinations (both total and nonspecific) were performed in triplicate. Insulin was iodinated by the method of Chloramine T, as previously described (Gavin et al., Proc. Nat. Acad. Sci., Vol. 71, p. 84-88 (1974)).
The peptide was immobilized in the bottom of 96-well microtitre plates, and at zero time, 2 nM ^125 I-insulin, in the absence or presence of 3 uM unlabeled insulin, was added to each of the wells. At the indicated times, the wells were washed with cold PBS, the washed wells were cut from the dish and counted for radioactivity. The indicated data points are average values of specifically bound insulin, and the error bars indicate the range of the data. At 25° C., the binding attained equilibrium within 1.5 h, with a half-time of approximately 20 min. At 4° C., the binding process is slightly slower, requiring approximately 2 h to attain an equilibrium level of binding.
The peptide was immobilized in the bottom of 96-well microtitre plates, and ^125 I-insulin, in the absence or presence of 3 uM unlabeled insulin, was added to the wells. Following incubation at 25° C. for 3 h, the wells were washed, cut from the dish, and counted, as described above. The indicated data points of FIG. 2 are average values of specifically bound insulin, the error bars indicate the range of the data.

[3] = Binding of iodinated polypeptide hormones to immobilized IBP; conditions: 2 nM iodinated hormone; room temperature 3 h
Description: The specificity of the binding of IBP to insulin was determined by incubating iodinated calcitonin, parathyroid hormone or atrial naturiuretic peptide with immobilized IBP. The binding of insulin to IBP appears to be a specific process. The specific binding of the low molecular weight polypeptide hormones calcitonin, parathyroid hormone and atrial naturiuretic peptide is less than 1% of the level of the specific binding of insulin (Ins) to IBP. The insulin-binding peptide was immobilized in the bottom of 96-well microtitre plates. To the wells were then added 2 nM iodinated polypeptide hormones in the absence or presence of at least a 1000-fold excess of unlabeled hormone. Following incubation at room temperature for 3 h, the wells were washed, excised from the plate and ^125 I measured as described above. The specific binding of hormone to the wells is indicated, along with the binding as a percentage of the binding of insulin to the wells. The polypeptide hormones utilized are indicated on the abcissa: Cal, calcitonin; PTH, parathyroid hormone; ANP, atrial naturiuretic peptide; Ins, insulin.

T1 sequence (P01308 25-54 limits assumed, species assumed): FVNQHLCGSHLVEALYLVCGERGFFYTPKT
T1 sequence (P01308 90-110 partner limits assumed, species assumed): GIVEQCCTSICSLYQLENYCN

In the case of AQGHRPQDEG [S79, AQGHRPQDEG], the “relative binding of insulin to immobilized peptide, as percentage of binding to immobilized IBP” value (insulin [1]) is reported as 1.5%.

In the case of “CVEEAS [IBP, NH2 -Cys-Val-Glu-Glu-Ala-Ser-COOH]”, the “time to attain an equilibrium level of binding” value (insulin [2]; 4° C., 2 nM 125I-insulin) is reported as “approximately 2 h”, the half-time of binding (insulin [2]; 25° C., 2 nM 125I-insulin) is reported as “approximately 20 min” and the “time for binding to attain equilibrium” value (insulin [2]; 25° C., 2 nM 125I-insulin) is reported as no more than 1.5 h. The Kd (insulin [2]; IBP immobilized on plastic surface, 125I-insulin, 25° C. for 3 h, read-out: Kd of insulin binding to immobilized IBP (Scatchard)) was 3 nM.

In the case of FSWGAEGQR [EAE, FSWGAEGQR], the “relative binding of insulin to immobilized peptide, as percentage of binding to immobilized IBP” value (insulin [1]) is reported as 0.3%.

With “THYGSLPQKAQGHRPQDEG [S82, THYGSLPQKAQGHRPQDEG]” the “relative binding of insulin to immobilized peptide, as percentage of binding to immobilized IBP” value (insulin [1]) was 0.2%.

In the case of TTHYQKG [S28, TTHYQKG], the “relative binding of insulin to immobilized peptide, as percentage of binding to immobilized IBP” value (insulin [1]) is reported as 0.3%.

With “YGSLPQKAQGHRPQDEG [S81, YGSLPQKAQGHRPQDEG]” the “relative binding of insulin to immobilized peptide, as percentage of binding to immobilized IBP” value (insulin [1]) was 0.6%.

With atrial naturiuretic peptide the “specific binding to IBP as percentage of the specific binding of insulin” value (“specific binding to IBP as percentage” for short) [3] was “less than 1%”.

In the case of calcitonin, the “specific binding to IBP as percentage” value [3] is reported as “less than 1%”.

For parathyroid hormone, the “specific binding to IBP as percentage” value [3] was “less than 1%”.
